Molecules are shown by their SMILES. Where two headings read alike, the source gives them in different places. A value given as a limit tells only on which side of the number the result lay.

From patent US9745335B2 (Blirt S.A., priority 2012, dated 2017) come the findings set out here.

Holding throughout (assay type): cell-based
In data set [1] the test system is Candida albicans ATCC 10231. Put plainly: antifungal activity in vitro, serial dilution in RPMI 1640. How it is done:
(§1) For the determination of antifungal activity in vitro we used method of serial dilution in buffered medium RPMI 1640, pH 7.0, in a 96-wells microplates, according to the standard procedure (National Committee for Clinical Laboratory Standards. Reference method for broth dilution antifungal susceptibility testing of yeast, approved standard, 2nd ed. M27-A2 vol. 22 Wayne, Pa., 2002). The optical density of cells suspension was measured using a microplates reader (Victor^3, Perkin-Elmer) at the wavelength λ=531 nm (A531). On the basis of obtained results the diagrams of relation between A531 values and concentration of examined compound were made.

The test system of data set [2] is Candida glabrata DSM 11226. The data set is described as above. How it is done: as §1
The test system of another data set is Candida krusei DSM 6128. The data set is described as above. How it is done:
as §1

For data set [3], the system named is Candida lusitaniae DSM 70102. The data set is described as above. How it is done:
as §1

Data set [4] relates to Candida tropicalis KKP 334. The data set is described as above. How it is done:
as §1

For data set [5], the system named is Saccharomyces cerevisiae ATCC 9763. Described as above. The settings on record: RPMI 1640, pH 7.0; for Antifungal activity IC50: Saccharomyces cerevisiae ATCC 9763 (first head over MIC and IC50); for Antifungal activity MIC: Saccharomyces cerevisiae ATCC 9763. How it is done: as §1
The subject of a further data set is Human erythrocytes. The data set can be described thus: hemotoxicity determination (hemolytic activity). How it is done: The hemotoxicity determination was carried out by the serial dilutions method, according to the procedure described earlier (Slisz, M., et al., E., J Antibiot 57: 669-678 (2004). Human erythrocytes were suspended in the solution of saline to obtain a cell density of suspension 2×10^7/ml. Suitable amounts of diluted solutions of compounds were added to the cell suspension in tubes and were incubated at 37° C. for 30 minutes and then centrifuged (1700×g, 10 min, 4° C.). The concentration of hemoglobin in supernatant after centrifugation of erythrocytes suspension were determined by measuring the absorbance at wavelength λ=540 nm (A540). The maximum level of hemolysis was obtained after incubation of cells suspension in the presence of 0.1% Tritone X-100 (control sample). […] From these graphs, the EH50 values were read which are the interpolated concentrations of compound, for which the A540 value is exactly 50% of the A540 value measured for the control sample.

The mark [6] stands for this setting: human erythrocytes, 37° C., 30 minutes.

As for `C[C@@H]1[C@H](O)[C@@H](C)/C=C/C=C/C=C/C=C/C=C/C=C/C=C/[C@H](O[C@@H]2O[C@H](C)[C@@H](O)[C@H](NCc3ccc(-c4ccccc4)cc3)[C@@H]2O)C[C@@H]2O[C@](O)(C[C@@H](O)C[C@@H](O)[C@H](O)CC[C@@H](O)C[C@@H](O)CC(=O)O[C@H]1C)C[C@H](O)[C@H]2C(=O)O` [Compound A20, N-[(4-biphenyl)methyl]amphotericin B], the “Antifungal activity MIC” value (in data set [1]; in data set [2]; in the data set on Candida krusei DSM 6128; in data set [3]; in data set [4]; in data set [5]) was 4 µg/mL throughout. Also, the “Antifungal activity IC50” value in data set [5] amounted to 1.63 µg/mL. For the same compound, the “Hemotoxi EH50” value in the data set on Human erythrocytes (setting [6]) was above 100 µg/mL.
Regarding `C[C@@H]1[C@H](O)[C@@H](C)/C=C/C=C/C=C/C=C/C=C/C=C/C=C/[C@H](O[C@@H]2O[C@H](C)[C@@H](O)[C@H](NC(=S)Nc3cccnc3)[C@@H]2O)C[C@@H]2O[C@](O)(C[C@@H](O)C[C@@H](O)[C@H](O)CC[C@@H](O)C[C@@H](O)CC(=O)O[C@H]1C)C[C@H](O)[C@H]2C(=O)O` [Compound A26, N-[3-(pyridin-3-yl)thioureidyl]amphotericin B], the “Antifungal activity MIC” value was determined as 4 µg/mL in data set [1]; 8 µg/mL in data set [2]; 8 µg/mL with Candida krusei DSM 6128; 4 µg/mL in data set [3]; 4 µg/mL in data set [4]; 4 µg/mL in data set [5]. In data set [5], the “Antifungal activity IC50” value came to 2.55 µg/mL. Also, in the data set on Human erythrocytes, the “Hemotoxi EH50” value is above 100 µg/mL.
Take `C[C@@H]1[C@H](O)[C@@H](C)/C=C/C=C/C=C/C=C/C=C/C=C/C=C/[C@H](O[C@@H]2O[C@H](C)[C@@H](O)[C@H](NC(=O)[C@@H](N)Cc3ccc(I)cc3)[C@@H]2O)C[C@@H]2O[C@](O)(C[C@@H](O)C[C@@H](O)[C@H](O)CC[C@@H](O)C[C@@H](O)CC(=O)O[C@H]1C)C[C@H](O)[C@H]2C(=O)O` [Compound A31, N-L-p-iodophenylalanylamphotericin B]: the “Antifungal activity MIC” value in data set [1] came out at 4 µg/mL; in data set [2], 8 µg/mL; in the data set on Candida krusei DSM 6128 it was 8 µg/mL; in data set [3] it was 4 µg/mL; in data set [4], 4 µg/mL; in data set [5] it was 4 µg/mL. Further, the “Antifungal activity IC50” value in data set [5] is 2.52 µg/mL. In addition, the “Hemotoxi EH50” value in the data set with Human erythrocytes (setting [6]) is above 100 µg/mL.
In the case of `C[C@@H]1[C@H](O)[C@@H](C)/C=C/C=C/C=C/C=C/C=C/C=C/C=C/[C@H](O[C@@H]2O[C@H](C)[C@@H](O)[C@H](NCc3ccc(C(C)(C)C)cc3)[C@@H]2O)C[C@@H]2O[C@](O)(C[C@@H](O)C[C@@H](O)[C@H](O)CC[C@@H](O)C[C@@H](O)CC(=O)O[C@H]1C)C[C@H](O)[C@H]2C(=O)O` [Compound A21, N-(4-tert-butylbenzyl)amphotericin B], the “Antifungal activity MIC” value amounted to 4 µg/mL in data set [1]; 4 µg/mL in data set [2]; 4 µg/mL in the data set with Candida krusei DSM 6128; 2 µg/mL in data set [3]; 4 µg/mL in data set [4]; 4 µg/mL in data set [5]. In addition, in data set [5], the “Antifungal activity IC50” value amounted to 1.58 µg/mL. Further, the “Hemotoxi EH50” value in the data set on Human erythrocytes is above 100 µg/mL.
